From publication PMC10182956 (Archives of Toxicology, 2023)
Several values for one entry are separate records, joined by “and”; a condition that tells them apart may be missing. Equal values may be shown once. Entries after “also recorded” stand apart in the source; their conditions may differ.

Key:
HepaRG cells [1] = test: High-content imaging assay: lipid accumulation (Bodipy lipid droplets); assay type: cell-based; conditions: for EC (BMC, 1 SD from control): read-out: LA: Benchmark concentration (µM) per imaging endpoint calculated with BMDS software; for Lipid accumulation response (in words): population level, threshold ± 2 standard deviations of the response at the two lowest concentrations
HepaRG cells [2] = conditions: for Mitochondrial membrane potential response (in words): population level, threshold ± 2 standard deviations of the response at the two lowest concentrations
HepaRG cells [3] = conditions: for OS: Benchmark concentration (µM) per imaging endpoint calculated with BMDS software: oxidative stress, Supplementary table 3; for Oxidative stress response (in words): population level, threshold ± 2 standard deviations of the response at the two lowest concentrations
[4] = for OED: IVIVE derived median over all positive imaging endpoints, human simulation, Table 2; for OED (mg/kg BW/day): IVIVE derived median with 95% CI, from BMC of positive imaging endpoint, oral, daily dosing, Table 1; for OED compared with reported NOAEL, LOAEL concentrations or the exposure estimate (in words): human
HepaRG cells [5] = test: cells; conditions: Homo sapiens, 24 h, read-out: MMP: Benchmark concentration (µM) per imaging endpoint calculated with BMDS software
HepaRG cells [6] = test: cells; conditions: Homo sapiens, 24 h, read-out: NM: Benchmark concentration (µM) per imaging endpoint calculated with BMDS software
[7] = cited from earlier work; for In vivo Css: published, ref Birkett and Miners 1991, Graham et al. 2011, Freedman and Somberg 1991, Vasudev et al. 2001
HepaRG cells [8] = test: Cell viability assessment (WST-1 assay); assay type: cell-based, human; conditions: Homo sapiens, 24 h exposure, reference chemicals, 95% CI in brackets, read-out: EC50 µM (95% CI) from cell viability (WST-1)
Description: Undifferentiated HepaRG cells were purchased from Biopredic international (Saint Grégoire, France). HepaRG cells have unlimited growth capacity and phenotypic stability, stable enzymatic activities over 4 weeks of cultivation, and similar metabolic function to primary human hepatocytes, and also avoid limitations of primary cells such as donor variability and phenotypic instability (Aninat et al. [2006]; Guillouzo et al. [2007]; Lambert et al. [2009]; Lübberstedt et al. [2011]; Andersson et al. [2012]). The line contains two cell types, hepatocyte-like and cholangiocyte-like cells (Parent et al. [2004]), which allows for elucidation of cell-specific toxicity (Jossé et al. [2008]). Cells were seeded at a density of approximately 27′000 cells/cm^2 into a 150 × 25 mm petri dish and were cultured for 2 weeks in William’s E medium (cat. nr.: 32,551,020, ThermoFisher Scientific, Massachusetts, USA) supplemented with 2 mM glutamine, 10% (v/v) fetal bovine serum (FBS) good forte (cat. nr.: P40-47,500, PAN-Biotech, Aidenbach, Germany), 100 U/ml penicillin and 100 µg/ml streptomycin (cat. nr.: 15,140,122, ThermoFisher Scientific, Massachusetts, USA), 5 µg/ml Gibco recombinant AOF insulin (cat. nr.: A11382II, ThermoFisher Scientific, Massachusetts, USA) and 50 µM hydrocortisone hemisuccinate (cat. nr.: H4881, Sigma-Aldrich, St. Louis, USA) at 37 °C and 5% CO2. Differentiation was induced by culturing the cells for another 2 weeks in the above mentioned medium supplemented with 1.7% DMSO. After 4 weeks in culture, differentiated HepaRG cells were seeded at a high density of approximately 227′000 cells/cm^2 (72,000 cells/well with 100 µl per well) into black 96-well plates with a clear bottom (cat.nr.: 3603, Corning, New York, USA) and maintained for 10 days. After 10 days, cells were first adapted to treatment medium (culture medium containing 0.5% DMSO and 2% FBS) for 48 h and then used for cell viability and high-content imaging analysis.
Cell viability was analyzed using the WST-1 assay which is based on the measurement of mitochondrial dehydrogenase activity (cat. nr: ab155902, Abcam, Cambridge, UK). HepaRG cells were exposed to chemicals at defined concentrations for 24 h. Triton X-100 (0.01%) was a positive control. One hour before the end of incubation period, 10 µl of WST-1 reagent was added to each well, quickly mixed by shaking the plate, and returned to the cell culture incubator (37 °C, 5% CO2). After 1 h, absorbance was measured (450 nm, reference wavelength 620 nm) using a plate reader (Infinite M200 Pro, Tecan group, Männerdorf, Switzerland). Absorbance was then subtracted from the reference wavelength, corrected for background by subtracting values measured without cells, and then normalized to the solvent control, which was set to 100%. Dose–response data were fitted using drc package (Version 3.0.1) (Ritz et al. [2015]) in R 3.6.1. Data were from at least 3 independent experiments with 6 technical replicates per condition.

[9] = Published in vivo pharmacokinetics (Css, plasma concentration, clearance); conditions: human; for In vivo Css (µM): calculated with Css = (Dose*F)/(Cl*dosing interval) or k0/Cl from published pharmacokinetic parameters, ref Bowsher et al. 1994, Welling et al. 1977; for hepatocyte CLint: hepatocytes (back-calculated, no incubation), in vitro intrinsic hepatic clearance calculated from in vivo clearance with formula 3, read-out: Calculated Clint (ul/min/10^6 cells)
Method: For the model evaluation, Css of selected reference chemicals were predicted using formula 1 with the same dose rate from the in vivo Css measurements. […] The formula to calculate Clint was derived from the function calc_hepatic_clearance within the httk package. Predicted Css values were then compared to published in vivo Css values. If there was no published in vivo Css available, Css was then calculated based on published in vivo pharmacokinetic parameters using the following formula (Supplementary table 3)4 Css(mg/L)=(Dose×F)/(Cl×dosinginterval)
Supplementary table 3. Comparison of benchmark concentration and predicted Css with published pharmacokinetic values. Where indicated, in vivo derived Css values were calculated using following formula: Css = (Dose*F)/(Cl*dosing interval) or Css = k0/Cl with F = bioavailability, Cl = clearance, k0 = infusion rate and Css = steady state concentration.

HepaRG cells [10] = conditions: HepaRG 24 h, population level; threshold ± 2 standard deviations of the response at the two lowest concentrations
[11] = atrazine: increase relative liver weight, ref Aguilar et al. [2009], ATSDR [2003], Food and Authority [2009a], Food and Authority [2009b], cited from earlier work; for NOAEL from literature (mg/kg BW/day): first value of cell NOAEL/LOAEL; for LOAEL from literature (mg/kg BW/day): second value of cell NOAEL/LOAEL
[12] = parameters: method as in Literature column of Supplementary table 4; conditions: value added to httk database; ref Supplementary table 4; cited from earlier work
[13] = parameters: method as in earlier work; conditions: fraction unbound plasma; human; ref Aegerion Pharmaceuticals 2012; Bowsher et al. 1994; Scheen 1996; cited from earlier work
[14] = Homo sapiens, lipid accumulation, HepaRG 24 h, Supplementary table 3
[15] = single cell analysis, highest concentration 250 µM
[16] = human, ref Bowsher et al. 1994, Scheen 1996
[17] = Homo sapiens, lipid accumulation, HepaRG 24 h, BMR one standard deviation from control mean, Table 1

SMILES	Lipid accumulation response (in words) (HepaRG cells [1]; HepaRG 24 h)	Concentration at which decrease of mitochondrial membrane potential exceeded the threshold (HepaRG cells [2]; HepaRG 24 h)	OS: Benchmark concentration (µM) per imaging endpoint calculated with BMDS software (HepaRG cells [3]; HepaRG 24 h)	OED [4]	EC (BMC, 1 SD from control) (HepaRG cells [5])	EC (BMC) (HepaRG cells [6])	In vivo Css ([7]; human)	EC (BMC, 1 SD from control) (HepaRG cells [1]; [14])	Mitochondrial membrane potential response (in words) (HepaRG cells [2]; HepaRG 24 h)	OED (mg/kg BW/day) [4]	NOAEL from literature (mg/kg BW/day) [11]	LOAEL from literature (mg/kg BW/day) [11]	further results
CCCCc1oc2ccccc2c1C(=O)c1cc(I)c(OCCN(CC)CC)c(I)c1 [amiodarone]	increased in a dose-dependent manner	25 µM	5.35 µM	15.8 mg/kg/day	13.8 µM	14.9 µM	5.4 to 6.0 µM	–	–	–	–	–	EC (BMC, 1 SD from control) (HepaRG cells [1]; 24 h): 8.5 µM; Concentration at which increase of oxidative stress exceeded the threshold (HepaRG cells [3]; HepaRG 24 h): 25 µM
CN(C)[C@@H]1C(O)=C(C(N)=O)C(=O)[C@@]2(O)C(O)=C3C(=O)c4c(O)cccc4[C@@](C)(O)[C@H]3C[C@@H]12 [tetracycline]	accumulated in a dose-dependent manner above the threshold	250 µM	69.7 µM	30.2 mg/kg/day	218 µM	32.7 µM	–	32.9 µM	–	–	–	–	EC50 (HepaRG cells [8]): 238 µM; In vivo Css (µM) [9]: 9.7^3 µM; Mitochondrial membrane potential in hepatocyte-like and cholangiocyte-like cells (in words) (HepaRG cells [2]; [15]): decrease of mitochondrial membrane potential was observed in both cell types; Concentration at which increase of oxidative stress exceeded the threshold (HepaRG cells [3]; HepaRG 24 h): 125 µM and 250 µM; Oxidative stress in hepatocyte-like and cholangiocyte-like cells (in words) (HepaRG cells [3]; [15]): oxidative stress levels were elevated in both cell types; Number of apoptotic cells (nuclear morphology) response (in words) (HepaRG cells [10]): increased above the threshold
O=C(O)c1cc(=O)[nH]c(=O)[nH]1 [Orotic acid]	did not stimulate lipid accumulation	–	–	–	423 µM	–	–	–	dose-dependent increase in MMP exceeding the threshold	61.2 (95% CI 21.1–134) mg/kg BW/day	50 mg/kg BW/day	100 mg/kg BW/day	OED compared with reported NOAEL, LOAEL concentrations or the exposure estimate (in words) [4]: overlapped; In vivo blood plasma conc. ([7]; ref Aguilar et al. [2009], D’Apolito et al. [2012], Li et al. [2009]): 0.15 to 0.3 µM
O=c1[nH]c(=O)n([C@@H]2O[C@H](CO)[C@@H](O)[C@@H]2F)cc1I [fialuridine]	neither induced lipid accumulation; also recorded: did not give rise to lipid accumulation	–	–	5.6 mg/kg/day	6.3 µM	45.1 µM	–	–	increased MMP	–	–	–	hepatocyte CLint [9]: 0.173 µL/min/1e6 cells; In vivo Css (µM) [9]: 0.6^3 µM; Concentration at which increase of MMP (hyperpolarization) was observed / exceeded the threshold (HepaRG cells [2]; HepaRG 24 h): 25 µM; Oxidative stress response (in words) (HepaRG cells [3]; HepaRG 24 h): neither induced lipid accumulation, had any consistent impact on oxidative stress; In vivo clearance (L/h): Nonrenal clearance [7, 16]: 2.06 L/h; In vivo clearance (L/h): Renal clearance [7, 16]: 4.21 L/h; In vivo clearance (L/h): Total clearance [7, 16]: 6.27 L/h; LogP [12]: -0.9; Fup [13]: 0.375
CNC(=O)Oc1cccc2c1OC(C)(C)C2 [Carbofuran]	did not stimulate lipid accumulation	–	–	–	4980 µM	–	–	–	dose-dependent increase in MMP exceeding the threshold	–	0.03–0.1 mg/kg BW/day	0.1–0.3 mg/kg BW/day	–
CCCC(CCC)C(=O)O [valproic acid]	accumulated in a dose-dependent manner above the threshold	–	1379.8 µM	92.7 mg/kg/day	1310 µM	612 µM	346.7 to 693.4 µM	570 µM	did not affect MMP	–	–	–	Oxidative stress response (in words) (HepaRG cells [3]; HepaRG 24 h): no changes were observed
CCNc1nc(Cl)nc(NC(C)C)n1 [Atrazine]	induced significant lipid accumulation	–	–	–	–	–	–	–	–	0.5 (95% CI 0.2–1.7) mg/kg BW/day	5 mg/kg BW/day	–	EC (BMC, 1 SD from control) (HepaRG cells [1]; [17]): 19 µM
CCCCN(CCCC)SN(C)C(=O)Oc1cccc2c1OC(C)(C)C2 [Carbosulfan]	–	–	–	–	–	–	–	–	–	10.4 (95% CI 7–19.3) mg/kg BW/day	0.5–1.2 mg/kg BW/day	5–62 mg/kg BW/day	EC (BMC, 1 SD from control) (HepaRG cells [1]; [17]): 77 µM; OED compared with reported NOAEL, LOAEL concentrations or the exposure estimate (in words) [4]: overlapped
CN(C)C(=N)N=C(N)N [metformin]	accumulated in a dose-dependent manner above the threshold; also recorded: having the potential to induce lipid accumulation	50,000 µM	–	6778 mg/kg/day	–	1940 µM	5.2 µM	987 µM	–	–	–	–	Concentration at which lipid accumulation was induced (HepaRG cells [1]; HepaRG 24 h, increase): 25,000 µM and 50,000 µM; hepatocyte CLint [9]: 4.01 µL/min/1e6 cells; Concentration at which decrease of oxidative stress fell below the threshold (HepaRG cells [3]; HepaRG 24 h): 50,000 µM; Number of apoptotic cells (nuclear morphology) response (in words) (HepaRG cells [10]): increased above the threshold; Fup [13]: 0.99
